# Like-named read-outs stand apart in the source and are kept apart here.
# Legend:
# human α1B-adrenoceptor = biological target: T1, human α1B-adrenoceptor (Homo sapiens, UniProt P35368); assay: [3H]prazosin whole-cell competition binding, CHO-α1B cells; conditions: for selectivity α1B vs α1D: ratio, 1 = no selectivity for a subtype over another; for Kd: read-out: Log KD α1B (converted); for Log KD α1B (apparent): app: top concentration inhibited most but not all specific binding, curve extrapolated
# T1 construct: CHO cells stably expressing either the full‐length human α1A, α1B, or α1D‐adrenoceptor
# T1 sequence (P35368 1-520): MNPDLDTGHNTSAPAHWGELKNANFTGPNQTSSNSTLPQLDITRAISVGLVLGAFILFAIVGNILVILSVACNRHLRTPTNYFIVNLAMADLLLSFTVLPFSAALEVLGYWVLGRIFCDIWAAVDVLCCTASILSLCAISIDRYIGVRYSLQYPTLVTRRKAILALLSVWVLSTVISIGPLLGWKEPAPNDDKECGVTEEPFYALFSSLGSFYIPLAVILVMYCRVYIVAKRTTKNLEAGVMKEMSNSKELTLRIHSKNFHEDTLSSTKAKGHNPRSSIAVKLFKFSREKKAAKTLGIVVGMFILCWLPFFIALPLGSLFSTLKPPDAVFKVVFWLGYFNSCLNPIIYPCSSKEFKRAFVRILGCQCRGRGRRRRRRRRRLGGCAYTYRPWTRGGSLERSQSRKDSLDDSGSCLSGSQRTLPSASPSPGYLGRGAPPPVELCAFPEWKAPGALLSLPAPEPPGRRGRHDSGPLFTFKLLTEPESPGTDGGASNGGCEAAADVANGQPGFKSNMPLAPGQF
# human α1A-adrenoceptor = biological target: T2, human α1A-adrenoceptor (Homo sapiens, UniProt P35348); assay: [3H]prazosin whole-cell competition binding, CHO-α1A cells
# T2 construct: CHO cells stably expressing either the full‐length human α1A, α1B, or α1D‐adrenoceptor
# T2 sequence (P35348 1-466): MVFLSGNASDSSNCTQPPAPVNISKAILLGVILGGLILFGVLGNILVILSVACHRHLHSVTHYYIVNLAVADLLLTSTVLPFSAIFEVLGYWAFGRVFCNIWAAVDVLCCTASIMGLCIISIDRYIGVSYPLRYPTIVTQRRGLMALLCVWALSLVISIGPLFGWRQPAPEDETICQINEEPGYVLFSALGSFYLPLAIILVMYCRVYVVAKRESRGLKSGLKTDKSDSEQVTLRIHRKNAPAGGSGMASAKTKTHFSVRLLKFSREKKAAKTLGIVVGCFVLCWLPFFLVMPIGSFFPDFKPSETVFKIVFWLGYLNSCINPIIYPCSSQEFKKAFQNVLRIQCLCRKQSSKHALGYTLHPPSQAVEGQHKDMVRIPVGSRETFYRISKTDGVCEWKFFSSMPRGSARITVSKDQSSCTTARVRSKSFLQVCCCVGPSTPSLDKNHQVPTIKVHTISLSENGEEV
# [1] = biological target: T3, full-length human α1D-adrenoceptor (Homo sapiens, UniProt P25100); assay: [3H]prazosin whole-cell competition binding, CHO-α1D cells; conditions: for Log KD α1D (apparent): app: top concentration inhibited most but not all specific binding, curve extrapolated
# T3 sequence (P25100 1-572): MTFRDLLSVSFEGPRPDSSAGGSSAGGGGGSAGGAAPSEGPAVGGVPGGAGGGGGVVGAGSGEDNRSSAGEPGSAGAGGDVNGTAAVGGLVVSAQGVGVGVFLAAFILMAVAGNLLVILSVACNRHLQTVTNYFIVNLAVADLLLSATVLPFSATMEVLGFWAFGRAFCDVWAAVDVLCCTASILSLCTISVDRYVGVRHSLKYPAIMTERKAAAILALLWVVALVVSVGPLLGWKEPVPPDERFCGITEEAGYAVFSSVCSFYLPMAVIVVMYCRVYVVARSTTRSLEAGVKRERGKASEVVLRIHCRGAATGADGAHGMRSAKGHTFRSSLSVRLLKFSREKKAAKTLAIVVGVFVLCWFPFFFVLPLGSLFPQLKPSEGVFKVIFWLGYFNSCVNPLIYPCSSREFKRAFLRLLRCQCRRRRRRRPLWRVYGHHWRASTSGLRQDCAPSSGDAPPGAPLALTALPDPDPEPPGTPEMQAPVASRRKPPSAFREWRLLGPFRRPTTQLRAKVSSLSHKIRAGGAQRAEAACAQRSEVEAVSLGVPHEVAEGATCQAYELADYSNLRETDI
# [2] = ratio, 1 = no selectivity for a subtype over another
# [3] = single-component inhibition curve, given as log KD (negative), mean ± SE mean
# [4] = ratio of KD values, higher α1A affinity, 1.0 under vs = none
# [5] = ratio of KD values, printed under α1A = higher α1A affinity, 1.0 under vs = none
# [6] = single-component inhibition curve, given as log KD (negative), mean ± SE mean, read-out: Log KD α1A (converted)
# [7] = Log KD α1D, single-component inhibition curve, given as log KD (negative), mean ± SE mean
# [8] = ratio of KD values, higher α1D affinity (site 1 KD)
# [9] = Log KD α1A, single-component inhibition curve, given as log KD (negative), mean ± SE mean
Compound,selectivity α1B vs α1D (human α1B-adrenoceptor),Kd (human α1B-adrenoceptor; [3]),Selectivity ratio α1A vs α1D (human α1A-adrenoceptor; [4]),Selectivity ratio α1A vs α1B (human α1A-adrenoceptor; [5]),Kd (human α1A-adrenoceptor; [6]),"Kd [1, 7]","Selectivity ratio α1B vs α1D [1, 8]",Selectivity ratio α1A vs α1B (human α1A-adrenoceptor),Selectivity ratio α1A vs α1D (human α1A-adrenoceptor),Log KD α1A (human α1A-adrenoceptor; [3]),further results
Cn1cc(C(F)(F)F)nc1-c1ccc(OCC(O)CNCCOc2ccc(O)c(C(N)=O)c2)cc1 (stereo not shown) [CGP 20712A],>9.1,,,,,,,,,,"Log IC50 α1B (human α1B-adrenoceptor; log IC50 bound): Log IC50>-4; Kd (human α1A-adrenoceptor; log KD from 3H-prazosin whole cell binding, CHO cells, mean ± s.e.mean, read-out: Log KD α1A (converted)): 11700 nM; selectivity α1A vs 1D (human α1A-adrenoceptor; [2]): 1.1; selectivity α1A vs α1B (human α1A-adrenoceptor; [2]): >8.5; Kd ([1]; Log KD α1D (apparent), apparent KD: maximum concentration inhibited most but not all specific binding, IC50 from extrapolated curve): 11000 nM"
O=C1CCC(=O)N1C[C@H]1CC[C@H]2CN(c3ncccn3)CCN2C1 [Sunepitron],4.8,22400 nM,2.8 fold,13 fold,1660 nM,4680 nM,4.8 fold,,,,
CN(C)CCCN1c2ccccc2CCc2ccc(Cl)cc21 [Clomipramine],,457 nM,,,,708 nM,,60 fold,93 fold,,Selectivity ratio α1B vs α1D (human α1B-adrenoceptor): 1.5 fold; Kd (human α1A-adrenoceptor; [9]): 7.59 nM
CCS(=O)(=O)N1CCC[C@@H]2CN3CCc4cc(OC)ccc4[C@@H]3C[C@@H]21 [RS79948],12,,,5.8 fold,,,12 fold,,,−5.75 ± 0.05,"Log KD α1B (human α1B-adrenoceptor; [3]): −4.99 ± 0.05; selectivity α1A vs 1D (human α1A-adrenoceptor; [2]): 2.1; Selectivity ratio α1A vs α1D [1, 8]: 2.1 fold; Log KD α1D [1, 3]: −6.07 ± 0.11"
Cc1ccc(/N=C/N(C)/C=N/c2ccc(C)cc2C)c(C)c1 [Amitraz],>12,,,,3020 nM,,,>33 fold,2.8 fold,,IC50 (human α1B-adrenoceptor; read-out: Log IC50 α1B (converted)): > 100000 nM; Kd [1]: 8320 nM; Selectivity ratio α1B vs α1D [1]: >12 fold
CN1[C@H]2C[C@H](OC(=O)[C@H](CO)c3ccccc3)C[C@@H]1[C@@H](O)C2 [Anisodamine],,,,,,,,,,−5.21 ± 0.03,"Log KD α1B (apparent) (human α1B-adrenoceptor): −3.45 ± 0.04^app; Log KD α1D [1, 3]: −4.21 ± 0.05"
CCN1CCCC1CNC(=O)c1cc(S(=O)(=O)CC)c(N)cc1OC (stereo not shown) [Amisulpiride],,,,,,,,,,−5.05 ± 0.04,Log KD α1B: result in words (human α1B-adrenoceptor; no inhibition of [3H]prazosin binding at maximum concentration possible): No binding to 100 µmol/L; binding at α1B (human α1B-adrenoceptor; result in words in the Log KD α1B column): No binding to 100µM; binding at α1B (result in words) (human α1B-adrenoceptor; up to the maximum concentration): No binding to 100µM; Log KD α1D (apparent) [1]: −4.55 ± 0.08^app
CNCCCC1c2ccccc2C=Cc2ccccc21 [Protriptyline],,2690 nM,16 fold,13 fold,214 nM,3470 nM,,,,,"Selectivity ratio α1B vs α1D (human α1B-adrenoceptor; ratio of KD values, higher α1B affinity, 1.0 under vs = none): 1.3 fold"
CN(C)CCC=C1c2ccccc2CCc2ccccc21 [Amitriptyline],1.1,603 nM,,,,562 nM,1.1 fold,93 fold,87 fold,,selectivities α1A vs α1B (human α1A-adrenoceptor): 93; selectivity α1A vs α1B (human α1A-adrenoceptor): 93; Kd (human α1A-adrenoceptor; [9]): 6.46 nM
COc1ccc(NC(=O)N2CCc3c2ccc2ccccc32)cc1N1CCN(C)CC1 [S32212],5.9,,1.6 fold,9.5 fold,,,5.9 fold,,,−5.90 ± 0.06,Log KD α1B (apparent) (human α1B-adrenoceptor): −4.92 ± 0.02^app; Log KD α1D (apparent) [1]: −5.69 ± 0.13^app

# From article PMC7327383, “The affinity and selectivity of α‐adrenoceptor antagonists, antidepressants, and antipsychotics for the human α1A, α1B, and α1D‐adrenoceptors” (Pharmacology Research & Perspectives, 2020)
